Assay results from patent publication US20250040554A1, “NEW USES OF PHENMEDIPHAM AND HERBICIDAL COMBINATIONS COMPRISING PHENMEDIPHAM” (BAYER AKTIENGESELLSCHAFT, priority 2021, published 2025).

Columns and labels:
Type in all cases: in vivo
KCHSC=Kochia scoparia = assay: Weed control field trial KCHSC; conditions: 15 DAA
Excerpt: (§1) The respective (combinations of) materials were applied to weed plants in the greenhouse or in the field at the respective growth stage indicated hereinafter for the different weed species mentioned below. The respective (combinations of) active ingredients were also applied to corn, cotton and soybean crop plants, and the selectivity (damage) in these crop plants rated (assessed).
(§2) Visual scoring of the damage to the trial plants took place after the time mentioned in the respective Table—indicated in number of Days After Application (DAA). Damage and development of all above-ground parts of the respective plants was recorded. Visual rating was done on a percentage scale in relation to the untreated control (100%=all plants dead; 50%=green plant biomass reduced by 50%, and 0%=no discernible difference=like control plot).
(§3) wherein • A, B=respective value in percent of active ingredient A at a dose rate of a g/ha, ingredient B at a dose rate of b g/ha • E^C=Expected value according to Colby (S. R. Colby; Weeds 15 (1967), 20-22) in % at a dose rate of a+b, each in g/ha • Δ=Difference (in %) between measured value E and expected value E^C (%) (measured value minus expected value)
After the harmful plants had emerged, they were treated, at the respective growth stage indicated, with the respective materials as indicated at a water application rate of 187 L/ha.
After the treatment (15 days after the treatment), the herbicidal activity of respective material was scored visually at the same time by comparing the differently treated plots with the untreated control plots. The score figures of the different plots were averaged.
(§4) The dose rates of herbicidal ingredients used in each case are indicated for the respective active ingredient and refer to the amount of active ingredient per hectare (g/ha).
The weed control activity of different (combinations of) herbicidal active ingredients was investigated in field trials for the following weed species: • AMARE=Amaranthus retroflexus • KCHSC=Kochia scoparia • PANRA=Panicum ramosum
The growth stage of AMARE was BBCH 19, the growth stage of KCHSC was BBCH 19 and the growth stage of PANRA was BBCH 22 at the time of application of the respective material.
Phenmedipham and the respective aroylcyclohexanedione herbicide were applied at varying application rates (Dose Rate) to the different species of weed plants. The results are shown in Tables 4a to 4d as the % control when assessed 15 days after application (DAA), respectively.
In all the trials of Tables 4a to 4d Mero® (rapeseed oil methyl ester) was added to the respective spray mixture in an amount corresponding to 1 L/ha for PMP, 1 L/ha for the respective aroylcyclohexanedione herbicide, and 2 L/ha for mixtures of PMP+the respective aroylcyclohexanedione herbicide.

[1] = test system: BRADC=Brachiaria decumbens; assay: Weed control field trial BRADC
Excerpt: as §1, §2
(§5) The trials in the greenhouse were sprayed with an application volume of 300 L/ha with an automated track sprayer. The plots in the field were sprayed with an application volume of 140 L/ha with a hand held spray boom.
as §3
(§6) The growth stages of the different weed species are indicated according to the BBCH monograph “Growth stages of mono- and dicotyledonous plants”, 2nd edition, 2001, ed. Uwe Meier, Federal Biological Research Centre for Agriculture and Forestry (Biologische Bundesanstalt für Land und Forstwirtschaft).
(§7) After the harmful plants had emerged, they were treated, at the respective growth stage indicated, with the respective materials as indicated at a water application rate of 140 L/ha.
(§8) After the treatment (21 or 35 days after application of the respective material), the herbicidal activity of respective material was scored visually at the same time by comparing the differently treated plots with the untreated control plots. The score figures of the different plots were averaged.
as §4
(§9) The weed control activity of different (combinations of) herbicidal active ingredients was investigated in field trials for the following weed species: • AMAVI=Amaranthus viridis • IPOAO=Ipomoea aristolochiaefolia • EPHHL=Euphorbia heterophylla • BIDPI=Bidens pilosa • BRADC=Brachiaria decumbens • ELEIN=Eleusine indica • CCHEC=Cenchrus echinatus
(§10) The growth stage of AMAVI was BBCH 13, the growth stage of IPOAO was BBCH 15, the growth stage of EPHHL was BBCH 13, the growth stage of BIDPI was BBCH 14, the growth stage of BRADC was BBCH 23, the growth stage of ELEIN was BBCH 11 and the growth stage of CCHEC was BBCH 12 at the time of application of the respective material.
(§11) Phenmedipham and Mesotrione were applied at varying application rates (Dose Rate) to the different species of weed plants. The results are shown in Tables 3a to 3e as the % control when assessed 21 and 35 days after application (DAA), respectively.
(§12) In all the trials of Tables 3a to 3e Mero® (rapeseed oil methyl ester) was added to the respective spray mixture in an amount corresponding to 1 L/ha for PMP, 1 L/ha for MST, and 2 L/ha for mixtures of PMP+MST.

[2] = test system: non-traited soybean (Glycine max, GLXMA); assay: Field selectivity trial soybean; conditions: 35 DAA
Excerpt: as §1, §2, §5
(§13) Phenmedipham and combinations of phenmedipham and mesotrione were applied at varying application rates (Dose Rate) to the crop plants of non-traited soybean (Glycine max, GLXMA) and corn (Zea mays, ZEAMX). The results are shown in Table 5 as the % damage when assessed 35 days after application (DAA), respectively.
(§14) In all the selectivity trials of Table 5 the adjuvant Mero® (rapeseed oil methyl ester) was added to the respective spray mixture in an amount corresponding to 1 L/ha for PMP, 1 L/ha for MST, and 2 L/ha for mixtures of PMP+MST.
(§15) The herbicidal effects observed for the herbicide(s) are indicated in % activity against the respective weed. The % damage (injury) indicated refers to the maximum damage observed.

corn (Zea mays, ZEAMX) = assay: Field selectivity trial corn; conditions: 35 DAA
Excerpt: as §1, §2, §5, §13, §14, §15

BIDPI=Bidens pilosa = assay: Weed control field trial BIDPI
Excerpt: as §1, §2, §5, §3, §6, §7, §8, §4, §9, §10, §11, §12

CS(=O)(=O)c1ccc(C(=O)C2C(=O)CCCC2=O)c([N+](=O)[O-])c1 [MST, 2-[4-(methylsulfonyl)-2-nitrobenzoyl]cyclohexane-1,3-dione]
% control KCHSC (KCHSC=Kochia scoparia; 20 g/ha): 40% | % control KCHSC (KCHSC=Kochia scoparia; 40 g/ha): 45% | % control KCHSC (KCHSC=Kochia scoparia; 60 g/ha): 45% | % control KCHSC (KCHSC=Kochia scoparia; 80 g/ha): 45% | % control KCHSC (KCHSC=Kochia scoparia; 100 g/ha): 50% | % control BRADC ([1]; 25 g/ha, 21 DAA): 0% | % control BRADC ([1]; 25 g/ha, 35 DAA): 0% | % control BRADC ([1]; 50 g/ha, 21 DAA): 17% | % control BRADC ([1]; 50 g/ha, 35 DAA): 13% | maximum damage GLXMA ([2]; 25 g/ha): 12% | maximum damage GLXMA ([2]; 50 g/ha): 29% | maximum damage ZEAMX (corn (Zea mays, ZEAMX); 25 g/ha): 0% | maximum damage ZEAMX (corn (Zea mays, ZEAMX); 50 g/ha): 0% | % control BIDPI (BIDPI=Bidens pilosa; 25 g/ha, 21 DAA): 80% | % control BIDPI (BIDPI=Bidens pilosa; 25 g/ha, 35 DAA): 80% | % control BIDPI (BIDPI=Bidens pilosa; 50 g/ha, 21 DAA): 80% | % control BIDPI (BIDPI=Bidens pilosa; 50 g/ha, 35 DAA): 80%

COC(=O)Nc1cccc(OC(=O)Nc2cccc(C)c2)c1 [PMP, 3-[(methoxyformyl)amino]phenyl (3-methylphenyl)carbamate]
% control KCHSC (KCHSC=Kochia scoparia; 150 g/ha): 0% | % control KCHSC (KCHSC=Kochia scoparia; 300 g/ha): 5% | % control BRADC ([1]; 75 g/ha, 21 DAA): 0% | % control BRADC ([1]; 75 g/ha, 35 DAA): 0% | % control BRADC ([1]; 100 g/ha, 21 DAA): 0% | % control BRADC ([1]; 100 g/ha, 35 DAA): 0% | % control BRADC ([1]; 125 g/ha, 21 DAA): 0% | % control BRADC ([1]; 125 g/ha, 35 DAA): 0% | % control BRADC ([1]; 250 g/ha, 21 DAA): 0% | % control BRADC ([1]; 250 g/ha, 35 DAA): 0% | maximum damage GLXMA ([2]; 75 g/ha): 10% | maximum damage GLXMA ([2]; 125 g/ha): 15% | maximum damage GLXMA ([2]; 250 g/ha): 14% | maximum damage ZEAMX (corn (Zea mays, ZEAMX); 75 g/ha): 6% | maximum damage ZEAMX (corn (Zea mays, ZEAMX); 125 g/ha): 6% | maximum damage ZEAMX (corn (Zea mays, ZEAMX); 250 g/ha): 6% | % control BIDPI (BIDPI=Bidens pilosa; 75 g/ha, 21 DAA): 0% | % control BIDPI (BIDPI=Bidens pilosa; 75 g/ha, 35 DAA): 0% | % control BIDPI (BIDPI=Bidens pilosa; 100 g/ha, 21 DAA): 0% | % control BIDPI (BIDPI=Bidens pilosa; 100 g/ha, 35 DAA): 0% | % control BIDPI (BIDPI=Bidens pilosa; 125 g/ha, 21 DAA): 0% | % control BIDPI (BIDPI=Bidens pilosa; 125 g/ha, 35 DAA): 0% | % control BIDPI (BIDPI=Bidens pilosa; 250 g/ha, 21 DAA): 0% | % control BIDPI (BIDPI=Bidens pilosa; 250 g/ha, 35 DAA): 0%
